Test results taken from article PMC10059066, “Probing Serum Albumins and Cyclodextrins as Binders of the Mycotoxin Metabolites Alternariol-3-Glucoside, Alternariol-9-Monomethylether-3-Glucoside, and Zearalenone-14-Glucuronide” (Metabolites, 2023).

How the values were obtained:
albumins = system: albumins; set-up: method as in PMID 31083629; conditions: alternariol, RSA vs HSA; cited from earlier work
[1] = Extraction of mycotoxins from aqueous solutions with β-cyclodextrin bead polymer; conditions: BBP 10 mg/mL, mycotoxin 5 μM, sodium acetate buffer pH 5.0, 40 min, 25 °C
Description: The extraction of mycotoxins by insoluble (but water-swellable) CD bead polymers was tested in 0.05 M sodium acetate (pH 5.0) and 0.05 M sodium borate (pH 10.0) buffers. AG, AMG, alternariol, Z14Glr, and zearalenone solutions (5 μM each) were incubated with increasing amounts (0–10 mg/mL) of BBP or GBP in a thermomixer for 40 min at 1000 rpm and 25 °C. After pulse centrifugation (5000× g, 3 s), the mycotoxin contents of the supernatants were analyzed by HPLC-FLD (see Section 2.5).
The quantitative analyses of the examined mycotoxins were performed with a Jasco HPLC system (Tokyo, Japan) equipped with a binary pump (PU-4180), an autosampler (AS 4050), and a fluorescence detector (FP-920). Chromatograms were evaluated using the ChromNAV2 software (Jasco). Alternariol and zearalenone were analyzed as described previously. During the validation of our new HPLC-FLD methods, the linearity (LIN), limit of detection (LOD), limit of quantification (LOQ), and intraday repeatability (IDR) were determined as described previously.
AG and AMG were quantified using the following method: Isocratic elution of the samples (20 μL) was performed at room temperature with a 1 mL/min flow rate, employing phosphoric acid (1 mM) and acetonitrile (65:35 v/v%) as the mobile phase, where a Security Guard (C18, 4.0 × 3.0 mm; Phenomenex, Torrance, CA, US) precolumn was linked to a Kinetex EVO C18 (250 × 4.6 mm, 5 μm; Phenomenex) analytical column. Chromatograms were recorded, applying 335 nm and 455 nm excitation and emission wavelengths, respectively. The method validation parameters were as follows: AG (LIN: 0.2–5.0 μM, R^2 = 0.999; LOD = 0.05 μM; LOQ = 0.18 μM; IDR = 1.3%, n = 7); AMG (LIN: 0.2–5.0 μM, R^2 = 0.997; LOD = 0.15 μM; LOQ = 0.50 μM; IDR = 2.3%, n = 7).
Z14Glr was quantified using the following method: Isocratic elution of the samples (20 μL) was performed at room temperature with a 1 mL/min flow rate, employing 1% acetic acid solution and acetonitrile (65:35 v/v%) as the mobile phase, where a Security Guard (C8, 4.0 × 3.0 mm; Phenomenex) precolumn was linked to a Mediterranea See8 (C8, 150 × 4.6 mm, 5 μm; Teknokroma, Barcelona, Spain) analytical column. Chromatograms were recorded, applying 315 nm and 465 nm excitation and emission wavelengths, respectively. The method validation parameters for the HPLC analysis of Z14Glr were also determined (LIN: 0.2–5.0 μM, R^2 = 0.999; LOD = 0.15 μM; LOQ = 0.50 μM; IDR = 2.0%, n = 7).

Row | Compound | affinity of RSA compared to HSA (albumins) | decrease in mycotoxin concentration (extraction) by BBP [1]
1 | Cc1cc(O)cc2oc(=O)c3c(O)cc(O)cc3c12 [alternariol] | almost eightfold higher affinity | –
2 | C[C@H]1CCCC(=O)CCC/C=C/c2cc(O)cc(O)c2C(=O)O1 [zearalenone] | – | more than 95%
